These results are taken from patent US9938281B2 (Merck Sharp & Dohme Corp., priority 2012, dated 2018).

For one experiment, the target named is T1, PI3K-delta (Homo sapiens, UniProt O00329).
T1 construct: purchased Upstate; Millipore 14-604
The experiment is described as follows: HTRF PI3K biochemical assay, delta isoform. Particulars: form screened (neutral or TFA salt) given, read-out: PI3Kdelta IC50.

The target in a further experiment is T2, PI3K-alpha (Homo sapiens, UniProt P42336).
T2 construct: purchased Upstate; Millipore 14-602
T2 sequence (P42336 whole entry): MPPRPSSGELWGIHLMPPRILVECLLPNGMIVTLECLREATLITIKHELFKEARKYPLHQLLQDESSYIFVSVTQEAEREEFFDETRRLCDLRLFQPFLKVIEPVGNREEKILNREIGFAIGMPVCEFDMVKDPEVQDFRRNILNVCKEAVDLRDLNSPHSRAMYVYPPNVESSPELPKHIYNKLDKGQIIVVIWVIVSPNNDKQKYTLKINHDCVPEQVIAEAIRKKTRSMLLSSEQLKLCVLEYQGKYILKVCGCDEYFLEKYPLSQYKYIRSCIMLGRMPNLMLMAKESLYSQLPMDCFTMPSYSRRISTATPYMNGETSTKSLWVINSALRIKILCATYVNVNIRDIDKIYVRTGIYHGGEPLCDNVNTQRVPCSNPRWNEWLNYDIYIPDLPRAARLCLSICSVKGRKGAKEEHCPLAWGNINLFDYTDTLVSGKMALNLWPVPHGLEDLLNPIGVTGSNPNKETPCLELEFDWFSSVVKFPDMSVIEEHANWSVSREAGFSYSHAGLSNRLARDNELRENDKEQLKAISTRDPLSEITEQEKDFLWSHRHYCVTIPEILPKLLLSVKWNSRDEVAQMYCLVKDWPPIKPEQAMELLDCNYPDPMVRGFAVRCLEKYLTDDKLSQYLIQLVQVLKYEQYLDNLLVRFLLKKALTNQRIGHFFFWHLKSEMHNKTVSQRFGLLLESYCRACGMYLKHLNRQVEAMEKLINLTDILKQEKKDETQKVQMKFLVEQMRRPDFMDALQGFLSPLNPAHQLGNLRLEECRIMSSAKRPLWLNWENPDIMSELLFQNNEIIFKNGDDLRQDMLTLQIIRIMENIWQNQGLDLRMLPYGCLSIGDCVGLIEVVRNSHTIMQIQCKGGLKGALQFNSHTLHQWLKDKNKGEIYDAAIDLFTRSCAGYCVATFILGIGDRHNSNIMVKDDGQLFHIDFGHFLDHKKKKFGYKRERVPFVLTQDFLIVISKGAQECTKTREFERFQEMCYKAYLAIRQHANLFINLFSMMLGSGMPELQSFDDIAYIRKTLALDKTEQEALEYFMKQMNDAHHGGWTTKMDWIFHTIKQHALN
T2 sequence (P27986 whole entry partner): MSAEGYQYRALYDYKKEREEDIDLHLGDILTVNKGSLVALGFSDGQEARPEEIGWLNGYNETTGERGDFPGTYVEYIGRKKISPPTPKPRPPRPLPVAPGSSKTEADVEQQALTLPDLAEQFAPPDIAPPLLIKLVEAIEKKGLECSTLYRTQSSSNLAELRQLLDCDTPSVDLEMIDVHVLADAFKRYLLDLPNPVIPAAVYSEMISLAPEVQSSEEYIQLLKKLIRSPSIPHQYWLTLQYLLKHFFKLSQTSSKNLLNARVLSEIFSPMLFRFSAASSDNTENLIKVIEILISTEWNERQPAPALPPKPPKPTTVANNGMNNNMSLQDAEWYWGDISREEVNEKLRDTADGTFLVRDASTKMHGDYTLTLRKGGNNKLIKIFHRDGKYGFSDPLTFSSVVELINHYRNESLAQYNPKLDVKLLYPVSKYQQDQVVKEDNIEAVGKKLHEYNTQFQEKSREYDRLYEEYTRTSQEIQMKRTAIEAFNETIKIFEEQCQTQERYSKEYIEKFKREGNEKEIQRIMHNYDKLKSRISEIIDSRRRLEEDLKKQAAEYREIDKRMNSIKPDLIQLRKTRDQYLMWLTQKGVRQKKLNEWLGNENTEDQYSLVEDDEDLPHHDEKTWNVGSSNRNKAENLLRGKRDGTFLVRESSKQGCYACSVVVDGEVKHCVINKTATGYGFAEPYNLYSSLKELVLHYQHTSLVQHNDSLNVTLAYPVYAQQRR
The experiment is described as follows: HTRF PI3K biochemical assay, alpha isoform. Particulars: ratio PI3K-alpha IC50 value / PI3K-delta IC50 value.

The structures appear in SMILES notation. Where only a bound is given, the exact number is not on record here.

T1 sequence (O00329 whole entry): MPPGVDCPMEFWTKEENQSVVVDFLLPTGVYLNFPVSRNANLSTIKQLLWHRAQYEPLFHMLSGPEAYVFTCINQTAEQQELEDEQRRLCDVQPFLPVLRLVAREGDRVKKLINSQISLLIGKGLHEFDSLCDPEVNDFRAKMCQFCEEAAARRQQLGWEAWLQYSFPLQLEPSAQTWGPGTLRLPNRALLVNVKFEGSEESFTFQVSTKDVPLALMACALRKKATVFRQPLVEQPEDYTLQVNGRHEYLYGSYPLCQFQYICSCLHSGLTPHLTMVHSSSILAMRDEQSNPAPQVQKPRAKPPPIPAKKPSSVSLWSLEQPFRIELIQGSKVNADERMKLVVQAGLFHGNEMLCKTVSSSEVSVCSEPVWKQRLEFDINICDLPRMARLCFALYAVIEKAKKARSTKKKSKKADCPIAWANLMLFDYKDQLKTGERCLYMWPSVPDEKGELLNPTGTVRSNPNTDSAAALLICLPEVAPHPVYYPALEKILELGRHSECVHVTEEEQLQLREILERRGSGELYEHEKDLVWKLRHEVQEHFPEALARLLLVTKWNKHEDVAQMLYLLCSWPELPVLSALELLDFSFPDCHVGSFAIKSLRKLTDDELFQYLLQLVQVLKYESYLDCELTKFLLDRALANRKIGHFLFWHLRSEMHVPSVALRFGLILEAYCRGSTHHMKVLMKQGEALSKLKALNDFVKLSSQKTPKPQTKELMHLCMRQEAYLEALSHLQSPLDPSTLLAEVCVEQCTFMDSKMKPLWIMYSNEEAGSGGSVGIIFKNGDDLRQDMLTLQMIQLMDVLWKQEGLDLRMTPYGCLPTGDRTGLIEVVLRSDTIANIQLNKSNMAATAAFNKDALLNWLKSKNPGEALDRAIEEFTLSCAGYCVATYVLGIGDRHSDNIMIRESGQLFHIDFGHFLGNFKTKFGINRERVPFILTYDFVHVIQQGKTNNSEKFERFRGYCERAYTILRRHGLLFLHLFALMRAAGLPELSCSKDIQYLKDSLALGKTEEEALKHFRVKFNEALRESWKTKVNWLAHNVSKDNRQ
T1 sequence (P27986 whole entry partner): as the sequence (P27986 whole entry partner) above

For the compound `CCn1c(-c2cnc(C)nc2)nc2c(N[C@H]3CCN(C(=O)C4(C#N)CC4)C3)ncnc21` [Compound 2-65, 1-{[(3S)-3-{[9-ethyl-8-(2-methylpyrimidin-5-yl)-9H-purin-6-yl]amino}pyrrolidin-1-yl]carbonyl}cyclopropanecarbo-nitrile], the IC50 on PI3K-delta is 11 nM. Moreover, the “Selectivity versus PI3Kalpha” value on PI3K-alpha was >10.
For `CCn1c(-c2cnc(C)nc2)nc2c(N[C@H]3CCN(C(=O)C4CCCO4)C3)ncnc21` (single isomer, unassigned) [Compound 2-32, 9-ethyl-8-(2-methylpyrimidin-5-yl)-N-[(3S)-1-((S or R)-tetrahydrofuran-2-ylcarbonyl)pyrrolidin-3-yl]-9H-purin-6-amine], the IC50 at PI3K-delta stood at 3.1 nM. Further, the “Selectivity versus PI3Kalpha” value at PI3K-alpha is given as >10.
For the compound `CCn1ncc(-c2nc3c(N[C@@H]4CCCN(C(=O)OC(C)(C)C)C4)ncnc3n2C)c1C` [Compound 1-11, (R)-tert-butyl 3-((8-(1-ethyl-5-methyl-1H-pyrazol-4-yl)-9-methyl-9H-purin-6-yl)amino)piperidine-1-carboxylate], the IC50 at PI3K-delta is 250 nM. Moreover, the “Selectivity versus PI3Kalpha” value at PI3K-alpha is listed as >10.
In the case of `CCC(=O)N1CC[C@H](N(C)c2ncnc3c2nc(-c2cnc(OC)c(C)c2)n3C)C1` [Compound 2-13, (S)-1-(3-((8-(6-methoxy-5-methylpyridin-3-yl)-9-methyl-9H-purin-6-yl)(methyl)amino)pyrrolidin-1-yl)propan-1-one], the IC50 on PI3K-delta came out at 17 nM. In addition, the “Selectivity versus PI3Kalpha” value at PI3K-alpha is given as >10.
As for `CCn1c(C(F)F)nc2c(N[C@H]3CCN(C(=O)C4CCC4)C3)ncnc21` [Compound 7-15, N-[(3S)-1-(cyclobutylcarbonyl)pyrrolidin-3-yl]-8-(difluoromethyl)-9-ethyl-9H-purin-6-amine], the IC50 at PI3K-delta stood at 7.6 nM. Further, the “Selectivity versus PI3Kalpha” value at PI3K-alpha is on record as >10.
Consider `CCn1c(C(F)F)nc2c(N[C@H]3CCN(C(=O)[C@H]4C[C@H](OC)C4)C3)ncnc21` [Compound 7-17, 8-(difluoromethyl)-9-ethyl-N-{(3S)-1-[(trans-3-methoxycyclobutyl)carbonyl]pyrrolidin-3-yl}-9H-purin-6-amine], for which, on PI3K-delta, the IC50 amounted to 74 nM. Further, the “Selectivity versus PI3Kalpha” value at PI3K-alpha is >10.
As to `CCC(=O)N1CC[C@H](Nc2ncnc3c2nc(-c2cnc(OC)c(C(F)(F)F)c2)n3C)C1` [Compound 3-7, (S)-1-(3-((8-(6-methoxy-5-(trifluoromethyl)pyridin-3-yl)-9-methyl-9H-purin-6-yl)amino)pyrrolidin-1-yl)propan-1-one], the IC50 at PI3K-delta amounted to 2.2 nM. In addition, at PI3K-alpha, the “Selectivity versus PI3Kalpha” value is reported as >10.
For `CCn1c(-c2cnc(C)nc2)nc2c(N[C@H]3CCN(C(=O)CN(C)C)C3)ncnc21` [Compound 2-31, N-{(3S)-1-[(dimethylamino)acetyl]pyrroli-din-3-yl}-9-ethyl-8-(2-methylpyrimidin-5-yl)-9H-purin-6-amine], the IC50 on PI3K-delta stood at 10 nM. On PI3K-alpha, the “Selectivity versus PI3Kalpha” value is >10.
As for `CCn1c(-c2cnc(C)nc2)nc2c(N[C@H]3CCN(C(=O)N4CCC4)C3)ncnc21` [Compound 12-9, N-[(3S)-1-(azetidin-1-ylcarbonyl)pyrrolidin-3-yl]-9-ethyl-8-(2-methylpyrimidin-5-yl)-9H-purin-6-amine], the IC50 at PI3K-delta was found to be 1.4 nM. For the same compound, at PI3K-alpha, the “Selectivity versus PI3Kalpha” value is reported as >10.
In the same order, the values of `CCn1ncc(-c2nc3c(N[C@H]4CCN(C(=O)C5CC5)C4)ncnc3n2C)c1C` [Compound 2-7, N-[(3S)-1-(cyclopropylcarbonyl)pyrrolidin-3-yl]-8-(1-ethyl-5-methyl-1H-pyrazol-4-yl)-9-methyl-9H-purin-6-amine] are 1.2 nM and >10.
Turning to `CCn1c(C(F)F)nc2c(N[C@H]3CCN(C(=O)C4CC45CCCC5)C3)ncnc21` (single isomer, unassigned) [Compound 7-20, (S or R)-8-(difluoromethyl)-9-ethyl-N-[(3S)-1-(spiro[2.4]hept-1-ylcarbonyl)pyrrolidin-3-yl]-9H-purin-6-amine], the IC50 at PI3K-delta was 710 nM. On PI3K-alpha, the “Selectivity versus PI3Kalpha” value is on record as >10.
In the case of `CCn1c(-c2cnc(C)nc2)nc2c(N[C@H]3CCN(C(=O)C4CC4(C)C)C3)ncnc21` (mixture of isomers) [Compound 2-56, N-{(3S)-1-[((R and S)-2,2-dimethylcyclopropyl)carbonyl]pyrrolidin-3-yl}-9-ethyl-8-(2-methylpyrimidin-5-yl)-9H-purin-6-amine], the IC50 on PI3K-delta was found to be 1 nM. The “Selectivity versus PI3Kalpha” value on PI3K-alpha is given as >10.
With `CCn1c(-c2cnc(C)nc2)nc2c(N[C@H]3CCN(C(=O)C4CCC(=O)N4)C3)ncnc21` (mixture of isomers) [Compound 2-64, (R and S)-5-{[(3S)-3-{[9-ethyl-8-(2-methylpyrimidin-5-yl)-9H-purin-6-yl]amino}pyrrolidin-1-yl]carbonyl}pyrrolidin-2-one], at PI3K-delta, the IC50 turned out to be 6.7 nM. Also, on PI3K-alpha, the “Selectivity versus PI3Kalpha” value is reported as >10.
Take `CCn1c(C#CCOC)nc2c(N[C@H]3CCN(C(=O)C4CC4)C3)ncnc21` [Compound 16-3, N-[(3S)-1-(cyclopropylcarbonyl)pyrrolidin-3-yl]-9-ethyl-8-(3-methoxyprop-1-yn-1-yl)-9H-purin-6-amine]: the IC50 at PI3K-delta turned out to be 63 nM. Further, the “Selectivity versus PI3Kalpha” value on PI3K-alpha is >10.
On to `CCn1c(-c2cnc(C)nc2)nc2c(N[C@H]3CCN(C(=O)c4cc(C)on4)C3)ncnc21` [Compound 2-70, 9-ethyl-N-{(3S)-1-[(5-methylisoxazol-3-yl)carbonyl]pyrrolidin-3-yl}-8-(2-methylpyrimidin-5-yl)-9H-purin-6-amine], for which the IC50 at PI3K-delta turned out to be 7.4 nM. Further, at PI3K-alpha, the “Selectivity versus PI3Kalpha” value was >10.
Turning to `CCn1c(-c2cnc(C)nc2)nc2c(NC3CN(C(=O)C4CC4)CC3(F)F)ncnc21` (single isomer, unassigned) [Compound 2-26, N-[(3S or 3R)-1-(cyclopropylcarbonyl)-4,4-difluoropyrrolidin-3-yl]-9-ethyl-8-(2-methylpyrimidin-5-yl)-9H-purin-6-amine], on PI3K-delta, the IC50 is 10 nM. Further, at PI3K-alpha, the “Selectivity versus PI3Kalpha” value is >10.
Consider `CCn1c(-c2cnc(C)nc2)nc2c(N[C@H]3C[C@H](C(=O)N[C@@H](C)C(C)C)N(C(=O)C4CC4)C3)ncnc21` [Compound 15-6, (4S)-1-(cyclopropylcarbonyl)-N-[(1S)-1,2-dimethylpropyl]-4-{[9-ethyl-8-(2-methylpyrimidin-5-yl)-9H-purin-6-yl]amino}-D-prolinamide], for which the IC50 at PI3K-delta was found to be 20 nM. Further, the “Selectivity versus PI3Kalpha” value at PI3K-alpha was >10.
In the case of `CCC(=O)N1CC[C@H](Nc2ncnc3c2nc(CC(C)C)n3CC)C1` [Compound 7-2, 9-ethyl-8-(2-methylpropyl)-N-[(3S)-1-propanoylpyrrolidin-3-yl]-9H-purin-6-amine], the IC50 on PI3K-delta amounted to 51 nM. For the same compound, the “Selectivity versus PI3Kalpha” value on PI3K-alpha is on record as >10.
As to `CCn1c(-c2ccc(C(F)(F)F)nc2)nc2c(N[C@H]3CCN(C(=O)[C@H]4C[C@H](OC)C4)C3)ncnc21` [Compound 2-106, 9-ethyl-N-{(3S)-1-[(trans-3-methoxycyclobutyl)carbonyl]pyrrolidin-3-yl}-8-[6-(trifluoromethyl)pyridin-3-yl]-9H-purin-6-amine], at PI3K-delta, the IC50 was 1.2 nM. On PI3K-alpha, the “Selectivity versus PI3Kalpha” value is on record as >10.
In the case of `CCn1c(-c2cnc(C)nc2)nc2c(N[C@H]3C[C@H](C(=O)OC)N(C(=O)OC(C)(C)C)C3)ncnc21` [Compound 1-17, 1-tert-butyl 2-methyl (2R,4S)-4-{[9-ethyl-8-(2-methylpyrimidin-5-yl)-9H-purin-6-yl]amino}pyrrolidine-1,2-dicarboxylate], at PI3K-delta, the IC50 turned out to be 8.8 nM. In addition, the “Selectivity versus PI3Kalpha” value at PI3K-alpha is >10.
Turning to `CCn1c(-c2cnc(C)nc2)nc2c(N[C@H]3CCN(C(=O)[C@H]4CCOC4)C3)ncnc21` [Compound 2-41, 9-ethyl-8-(2-methylpyrimidin-5-yl)-N-{(3S)-1-[(3S)-tetrahydrofuran-3-ylcarbonyl]pyrrolidin-3-yl}-9H-purin-6-amine], the IC50 at PI3K-delta was 4.3 nM. Besides, the “Selectivity versus PI3Kalpha” value at PI3K-alpha is reported as >10.
Take `CCn1c(C(=O)N(C)C)nc2c(N[C@H]3CCN(C(=O)C4CC4)C3)ncnc21` [Compound 6-5, 6-{[(3S)-1-(cyclopropylcarbonyl)pyrrolidin-3-yl]amino}-9-ethyl-N,N-dimethyl-9H-purine-8-carboxamide]: the IC50 at PI3K-delta turned out to be 800 nM. In addition, on PI3K-alpha, the “Selectivity versus PI3Kalpha” value is recorded as >10.
Take `CCn1c(C2CC2)nc2c(N[C@H]3CCN(C(=O)C4CC4)C3)ncnc21` [Compound 7-10, 8-cyclopropyl-N-[(3S)-1-(cyclopropylcarbonyl)pyrrolidin-3-yl]-9-ethyl-9H-purin-6-amine]: the IC50 on PI3K-delta was 120 nM. For the same compound, at PI3K-alpha, the “Selectivity versus PI3Kalpha” value is >10.
In the case of `CCn1c(C(=O)NCC(F)(F)F)nc2c(N[C@H]3CCN(C(=O)C4CC4)C3)ncnc21` [Compound 6-3, 6-{[(3S)-1-(cyclopropylcarbonyl)pyrrolidin-3-yl]amino}-9-ethyl-N-(2,2,2-trifluoroethyl)-9H-purine-8-carboxamide], the IC50 on PI3K-delta was found to be 6.7 nM. Further, the “Selectivity versus PI3Kalpha” value at PI3K-alpha is on record as >10.
In the case of `CCC(=O)N1CC[C@H](Nc2ncnc3c2nc(-c2ccc(C(F)(F)F)nc2)n3C)C1` [Compound 3-1, (S)-1-(3-((9-methyl-8-(6-(trifluoromethyl)pyridin-3-yl)-9H-purin-6-yl)amino)pyrrolidin-1-yl)propan-1-one], the IC50 at PI3K-delta stood at 11 nM. The “Selectivity versus PI3Kalpha” value on PI3K-alpha was >10.
For `CCC(=O)N1CC[C@H](Nc2ncnc3c2nc(-c2ccc4cc[nH]c4c2)n3C)C1` [Compound 3-4, (S)-1-(3-((8-(1H-indol-6-yl)-9-methyl-9H-purin-6-yl)amino)pyrrolidin-1-yl)propan-1-one], the IC50 at PI3K-delta is 7.7 nM. Besides, the “Selectivity versus PI3Kalpha” value on PI3K-alpha is recorded as >10.
For the compound `CCC(=O)N1CC[C@H](Nc2ncnc3c2nc(C(F)F)n3CC)C1` [Compound 7-13, 8-(difluoromethyl)-9-ethyl-N-[(3S)-1-propanoylpyrrolidin-3-yl]-9H-purin-6-amine], the IC50 on PI3K-delta turned out to be 32 nM. Besides, the “Selectivity versus PI3Kalpha” value at PI3K-alpha was >10.
